# Results taken from PMC10786919, “Design-rules for stapled peptides with in vivo activity and their application to Mdm2/X antagonists” (Nature Communications, 2024).
# Where two headings read alike, the source gives them in different places. Positions of bridges follow the written chain, without caps; N, C: chain ends. Non-standard residues stand in square brackets, D forms with d. Residues, ends and D or L forms follow the SMILES beside them. Lys(N3) = [N-]=[N+]=NCCCC[C@H](N)C(=O)O; R8 = C=CCCCCCC[C@@](C)(N)C(=O)O; αMeE = C[C@](N)(CCC(=O)O)C(=O)O; Cba = N[C@@H](CC1CCC1)C(=O)O; S5 = C=CCCC[C@](C)(N)C(=O)O; βAla = NCCC(=O)O
# Legend:
# [1] = Lactate dehydrogenase (LDH) release assay; assay type: cell-based; conditions: LDH: Cytotoxicity assay: EC50
# Procedure, shortened: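 Membrane damage measured as lactate dehydrogenase release (CytoTox-ONE kit) from p53-responsive β-lactamase reporter HCT116 cells plated at 8000 per well. Final DMSO 0.5%; geometric mean reported from a minimum of three biological replicates.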
# [2] = Solubility assay (kinetic solubility, PBS pH 7); assay type: physicochemical; conditions: for solubility kinetic: read-out: Solubility
# Procedure, shortened: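 Values derive from peak-area ratios of sample versus a 100 µM standard, scaled by that standard's concentration.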
# Ca Ski cell line = conditions: 72 h
# Procedure, shortened: (§1)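 Compound dilution series (10 points, 3-fold, 10 mM top stock in DMSO) tested on overnight-plated Ca Ski cells in RPMI1640/10% FBS and on blasticidin-selected p53RE-bla HCT-116 cells in McCoy's 5A; read-out was CellTiter-Glo 2.0 luminescence after room-temperature equilibration.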
# [3] = tested on: CellSensor p53RE-bla HCT-116 Cell Line; conditions: 72 h
# Procedure, shortened: as §1
# in vitro = conditions: Nanoclick permeability assay EC50
# Procedure, shortened: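 Azido-peptide permeability was read as loss of NanoBRET signal (donor 450 nm, acceptor 610 nm) after adding NanoBret618-azide at 10 μM final.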
# EPSA = assay type: physicochemical; conditions: EPSA
# [4] = Experimental LogD (partition coefficient)
# [5] = pH 7, aqueous buffer, kinetic from dmso stock, pH 7, PBS
SMILES,EC50 [1] [nM],Solubility [2],"Solubility ([2]; pH 7, PBS)",EC50 (Ca Ski cell line) [nM],EC50 [3] [nM],cell entry EC50 (in vitro) [nM],EPSA (EPSA) [A^2],Partition Coeff LogD [4],"solubility kinetic [2, 5] [µM]",solubility kinetic [2] [µM],"logD ([4]; not stated, Partition Coeff LogD)"
CC(=O)N[C@@H](CCCCN=[N+]=[N-])C(=O)NCCC(=O)N[C@@H](CC(C)C)C(=O)N[C@H](C(=O)N[C@@H](Cc1ccccc1)C(=O)N[C@]1(C)CCCCCCC=CCCC[C@@](C)(C(=O)N[C@@H](C)C(=O)N[C@@H](C)C(=O)N[C@@H](Cc2ccccc2)C(=O)N[C@@H](C)C(=O)N[C@@H](C)C(=O)N[C@@H](Cc2ccccc2)C(N)=O)NC(=O)[C@H](CC2CCC2)NC(=O)[C@H](CCC(N)=O)NC(=O)[C@H](C)NC(=O)[C@H](Cc2c[nH]c3ccccc23)NC(=O)[C@H](Cc2ccc(O)cc2)NC(=O)[C@H](CCC(=O)O)NC1=O)[C@@H](C)O [MP-040] (Ac-[Lys(N3)][βAla]LTF[R8]EYWAQ[Cba][S5]AAFAAF-NH2; staple 6-13),> 50700,P.B.,Poorly Behaved,> 49800,1220,439,204,Poorly Behaved,,,
CC(=O)N[C@@H](CCCCN=[N+]=[N-])C(=O)NCCC(=O)N[C@@H](CC(C)C)C(=O)N[C@H](C(=O)N[C@@H](Cc1ccccc1)C(=O)N[C@]1(C)CCCCCCC=CCCC[C@@](C)(C(=O)N[C@@H](C)C(=O)N[C@@H](C)C(=O)N[C@@H](C)C(=O)N[C@@H](C)C(=O)N[C@@H](C)C(=O)N[C@@H](Cc2ccccc2)C(N)=O)NC(=O)[C@H](CC2CCC2)NC(=O)[C@H](CCC(N)=O)NC(=O)[C@H](C)NC(=O)[C@H](Cc2c[nH]c3ccccc23)NC(=O)[C@H](Cc2ccc(O)cc2)NC(=O)[C@H](CCC(=O)O)NC1=O)[C@@H](C)O [MP-060] (Ac-[Lys(N3)][βAla]LTF[R8]EYWAQ[Cba][S5]AAAAAF-NH2; staple 6-13),> 50700,P.B.,Poorly Behaved,> 49800,,1090,198,Poorly Behaved,,,
CC(=O)N[C@@H](CCCCN=[N+]=[N-])C(=O)NCCC(=O)N[C@@H](CC(C)C)C(=O)N[C@H](C(=O)N[C@@H](Cc1ccccc1)C(=O)N[C@]1(C)CCCCCCC=CCCC[C@@](C)(C(=O)N[C@@H](C)C(=O)N[C@@H](C)C(=O)N[C@@H](Cc2ccccc2)C(=O)N[C@@H](C)C(=O)N[C@@H](C)C(=O)N[C@H](Cc2ccccc2)C(N)=O)NC(=O)[C@H](CC2CCC2)NC(=O)[C@H](CCC(N)=O)NC(=O)[C@H](C)NC(=O)[C@H](Cc2c[nH]c3ccccc23)NC(=O)[C@H](Cc2ccc(O)cc2)NC(=O)[C@H](CCC(=O)O)NC1=O)[C@@H](C)O [MP-063] (Ac-[Lys(N3)][βAla]LTF[R8]EYWAQ[Cba][S5]AAFAA[dF]-NH2; staple 6-13),> 50700,,,> 49800,2780,394,199,,9,,
CC(=O)N[C@@H](CCCCN=[N+]=[N-])C(=O)NCCC(=O)N[C@@H](CC(C)C)C(=O)N[C@H](C(=O)N[C@@H](Cc1ccccc1)C(=O)N[C@]1(C)CCCCCCC=CCCC[C@@](C)(C(=O)N[C@@H](C)C(=O)N[C@@H](C)C(=O)N[C@@H](Cc2ccccc2)C(=O)N[C@@H](C)C(=O)N[C@@H](C)C(=O)N[C@H](C)C(N)=O)NC(=O)[C@H](CC2CCC2)NC(=O)[C@H](CCC(N)=O)NC(=O)[C@H](C)NC(=O)[C@H](Cc2c[nH]c3ccccc23)NC(=O)[C@H](Cc2ccc(O)cc2)NC(=O)[C@H](CCC(=O)O)NC1=O)[C@@H](C)O [MP-228] (Ac-[Lys(N3)][βAla]LTF[R8]EYWAQ[Cba][S5]AAFAA[dA]-NH2; staple 6-13),> 50700,,,30700,,2510,199,,2,,
CC(=O)N[C@@H](CCCCN=[N+]=[N-])C(=O)NCCC(=O)N[C@@H](CC(C)C)C(=O)N[C@H](C(=O)N[C@@H](Cc1ccccc1)C(=O)N[C@]1(C)CCCCCCC=CCCC[C@@](C)(C(=O)N[C@@H](C)C(=O)N[C@@H](C)C(=O)N[C@@H](Cc2ccccc2)C(=O)N[C@@H](C)C(=O)N[C@@](C)(CCC(=O)O)C(=O)N[C@@H](Cc2ccccc2)C(N)=O)NC(=O)[C@H](CC2CCC2)NC(=O)[C@H](CCC(N)=O)NC(=O)[C@H](C)NC(=O)[C@H](Cc2c[nH]c3ccccc23)NC(=O)[C@H](Cc2ccc(O)cc2)NC(=O)[C@H](CCC(=O)O)NC1=O)[C@@H](C)O [MP-229] (Ac-[Lys(N3)][βAla]LTF[R8]EYWAQ[Cba][S5]AAFA[αMeE]F-NH2; staple 6-13),> 50700,,,19900,2320,2090,253,,153,157,2.93
